How the values were obtained:
Format in all cases: biochemical
KDR-C1045A [1] = target: T1, KDR-C1045A (Homo sapiens, UniProt P35968, C1045A); assay: Basic enzyme assay, KDR-C1045A mutant enzyme
T1 construct: beginning at Val-805 (forward, 5′ tag cgg ccg cGT CATGGATCCAGATGAACTCCCATT (lower case—NotI site)) and ending at Val-1356; GST-His (thrombin cleavage site) (N); made in house; the mutant was also made in HEK293
Method: (§1) The protein was expressed in HEK293 or Sf9 cells as described for the wild type protein in sections 6.1 and 6.2. The protein was also purified using the FLAG or GST/His tags.
(§2) This mutated protein was designated KDR-C1045A. Additionally, for comparison, the test compounds were assayed using the KDR wild type enzyme in both a basic enzyme assay as well as the enzyme wash-out assay.

KDR wild type enzyme [2] = target: T2, KDR wild type enzyme (Homo sapiens, UniProt P35968); assay: Enzyme wash-out assay, KDR wild type
T2 construct: beginning at Val-805 (forward, 5′ tag cgg ccg cGT CATGGATCCAGATGAACTCCCATT (lower case—NotI site)) and ending at Val-1356; GST-His (thrombin cleavage site) (N, cleaved yes); made in house; HEK293 possible
T2 sequence (P35968 805-1356): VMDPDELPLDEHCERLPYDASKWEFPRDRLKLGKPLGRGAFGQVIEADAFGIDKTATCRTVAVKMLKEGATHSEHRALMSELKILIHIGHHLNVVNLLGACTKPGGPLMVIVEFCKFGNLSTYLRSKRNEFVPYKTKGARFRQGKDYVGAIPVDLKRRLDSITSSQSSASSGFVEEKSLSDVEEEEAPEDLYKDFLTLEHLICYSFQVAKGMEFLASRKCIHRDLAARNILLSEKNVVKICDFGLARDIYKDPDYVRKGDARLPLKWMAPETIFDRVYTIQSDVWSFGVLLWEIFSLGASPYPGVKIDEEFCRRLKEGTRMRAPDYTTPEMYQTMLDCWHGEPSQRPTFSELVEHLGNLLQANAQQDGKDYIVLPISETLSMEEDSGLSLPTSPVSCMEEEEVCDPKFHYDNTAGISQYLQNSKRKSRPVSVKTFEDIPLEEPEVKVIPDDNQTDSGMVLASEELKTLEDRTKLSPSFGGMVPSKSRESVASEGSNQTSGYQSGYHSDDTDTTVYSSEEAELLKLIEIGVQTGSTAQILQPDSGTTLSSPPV
Method: (§3) Parallel plates were tested for each test compound wherein one plate was processed as described above in section 6.3 and the second plate was washed three times in 100 ul of 4 mM HEPES, pH 7.4, to remove unbound compound. 1× kinase buffer (30 ul 1 mM MnCl2, 4 mM HEPES, pH 7.4, 20 μM Na3VO4) and 20 ul of ATP/MgCl2 were then added to the wash-out plate. The KDR-FLAG enzyme, as described in 6.1, was used in these assays.
as §2

KDR wild type enzyme [3] = target: T2, KDR wild type enzyme; assay: Basic enzyme assay, KDR wild type (GST-His-KDR-IC); details: mean ± standard deviation (N)
Method: as §2

KDR-C1045A [4] = target: T1, KDR-C1045A; assay: Enzyme wash-out assay, KDR-C1045A mutant enzyme
Method: as §3, §1, §2

[5] = target: T3, KDR-IC-FLAG (human KDR, VEGF-receptor 2) (Homo sapiens, UniProt P35968); assay: KDR kinase enzyme assay (DELFIA) using KDR-IC-FLAG kinase, no wash-out; details: 10 uM ATP
T3 construct: starting at Met-806 (underlined) (5′-ATGGATCCAGATGAACTCCCATTG) and ending at Val-1356; made in house
T3 sequence (P35968 806-1356): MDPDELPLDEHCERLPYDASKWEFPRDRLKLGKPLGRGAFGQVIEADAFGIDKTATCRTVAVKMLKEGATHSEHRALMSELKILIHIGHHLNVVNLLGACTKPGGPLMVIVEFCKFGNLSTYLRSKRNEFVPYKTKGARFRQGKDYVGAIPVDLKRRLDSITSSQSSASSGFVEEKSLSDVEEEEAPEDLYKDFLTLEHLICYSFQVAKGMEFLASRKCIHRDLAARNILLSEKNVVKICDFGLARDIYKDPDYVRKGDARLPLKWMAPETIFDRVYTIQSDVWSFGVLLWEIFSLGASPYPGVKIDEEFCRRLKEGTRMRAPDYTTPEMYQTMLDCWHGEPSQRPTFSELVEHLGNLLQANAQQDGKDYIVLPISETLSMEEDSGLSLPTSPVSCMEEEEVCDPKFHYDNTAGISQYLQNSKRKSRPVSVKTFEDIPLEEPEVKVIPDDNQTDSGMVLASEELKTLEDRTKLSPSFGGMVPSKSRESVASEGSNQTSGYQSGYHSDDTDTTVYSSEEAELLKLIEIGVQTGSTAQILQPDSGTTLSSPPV
Description: Controls were done by adding DMSO alone, i.e., no test compound, to wells containing the master mix of enzyme plus kinase buffer.

[6] = target: T4, KDR-FLAG enzyme (human KDR) (Homo sapiens, UniProt P35968); assay: Enzyme wash-out assay, KDR-FLAG enzyme; details: plate washed three times before ATP addition
T4 construct: starting at Met-806 (underlined) (5′-ATGGATCCAGATGAACTCCCATTG) and ending at Val-1356; made in house
T4 sequence (P35968 806-1356): as the sequence (P35968 806-1356) above
Method: as §3

T1 sequence (P35968 805-1356 C1045A): as the sequence (P35968 805-1356) above, with C241A counted along it

SMILES	loss of activity, mutant versus wild type KDR in basic enzyme assay (KDR-C1045A [1]; KDR-C1045A vs wild type)	IC50 (KDR-C1045A [1]; mean ± standard deviation (N))	loss of activity upon wash out, wild type KDR (KDR wild type enzyme [2]; wash out vs no wash out)	IC50 (KDR wild type enzyme [2]; wash out, mean ± standard deviation (N))	IC50 (KDR wild type enzyme [3])	KDR-C1045A, WASH OUT percent inhibition at the high dose tested (KDR-C1045A [4]; high dose tested)	IC50 (KDR-C1045A [4]; mean ± standard deviation (N))	IC50 [5]	IC50 [6]
COc1cc2c(Oc3ccc4[nH]c(C)cc4c3F)c(C#N)cnc2cc1OCC1CCN(C)CC1 [4-[(4-fluoro-2-methyl-1H-indol-5-yl)oxy]-6-methoxy-7-[(1-methylpiperidin-4-yl)methoxy]quinoline-3-carbonitrile]	less than a five times loss of activity	301 ± 140 nM	partially washed out	277 nM	63.2 ± 23.5 nM	33%	> 1000 nM		
COCCOc1cc2ncnc(NC3=C(Sc4nccs4)C(=O)C=C(OC)C3=O)c2cc1OC [5-methoxy-3-{[6-methoxy-7-(2-methoxyethoxy)quinazolin-4-yl]amino}-2-(1,3-thiazoylthio)benzo-1,4-quinone]								17.9 nM	33.1 nM
